Results from patent publication US20260234207A1, “Keratin YK93-8, and Preparation Method Therefor, Pharmaceutical Composition Thereof and Use Thereof” (INSTITUTE OF MATERIA MEDICA, CHINESE ACADEMY OF MEDICAL …, priority 2022, published 2026).
Counter-ions that a name gives are not always drawn. Like-named read-outs stand apart in the source and are kept apart here.

Legend:
[1] = system: acetic acid-induced writhing of mice; test: Pharmacodynamic test on mouse pain model (acetic acid-induced writhing); type: in vivo, Male Kunming mice; settings: 1% acetic acid intraperitoneally, writhing within 15 minutes
Experimental: • Animals: Male Kunming mice; • Drugs: Tramadol Hydrochloride Sustained Release Tablets, Glacial acetic acid, YK93-8; • Instruments: electronic balance, timer • Experiment grouping: • Normal control group; • Positive control group: Tramadol Hydrochloride group; • Protein YK93-8, (0.5 g/kg) group. • Method:
Mice in the YK93-8 (0.5 g/kg) group were administered by gavage, while mice in the model group were given an equal volume of CMC-Na once a day for 7 consecutive days. 30 minutes after the last administration, 1% acetic acid was administered intraperitoneally, and the writhing times of mice within 15 minutes was recorded, and the inhibition rate of drug-induced writhing reaction was calculated. The observation criteria were concave abdominal cavity, extended hind limbs, and raised buttocks.
The inhibition rate was calculated by (Mean number of writhing reactions in the normal control group−Mean number of writhing reactions in the treatment group)/Mean number of writhing reactions in the normal control group *100%.

Lewis lung cancer = system: Lewis lung cancer
Experimental: Subcutaneous inoculation of Lewis cell suspension to replicate mouse Lewis lung cancer model: The Lewis tumor tissue was ground into a suspension with a glass homogenizer, the tumor suspension was aspirated with a syringe, the number of live cells was calculated, the concentration of the cells was adjusted to 2.6*10^6/ml with physiological saline, and then the suspension was injected to the left armpit of the mouse with 0.2 ml/mouse. On the next day, the mice were randomly divided into normal control group, cyclophosphamide (100 mg/kg) group, and YK93-8 (0.5 g/kg) group. Cyclophosphamide was injected intraperitoneally for single time, mice in YK93-8 group were given intragastric administration every day for 10 consecutive days, mice in the normal control group were orally given the equal volume of sodium carboxymethyl cellulose. On the day of the treatment, the weight was measured, 20 μl of blood was obtained from the orbital blood and the routine blood analysis was performed. The tumor blocks were stripped, weighed and photographed, and the tumor suppression rate was calculated.
(§1) The tumor suppression rate [(The average weight of the tumor in the normal control group—the average weight of the tumor in the experimental group)/The average weight of the tumor in the normal control group×100%] and the average value, standard deviation and standard errors of tumor weight were calculated.

EL-4 lymphoma = system: EL-4 lymphoma
Experimental: (§2) • Animals: Male C57BL/6J mice • Drugs: Cyclophosphamide for injection (CTX), YK93-8 • Instruments: electronic balance, Five classified blood cell analyser • Experiment grouping: • Normal control group; • Positive control group: cyclophosphamide (100 mg/kg); • Protein YK93-8, (2 g/kg) group. • Method:
Subcutaneous inoculation of EL-4 cell suspension to replicate a mouse lymphoma model: The EL-4 tumor tissue was ground into a suspension using a glass homogenizer, the tumor suspension was aspirated with a syringe, the number of live cells was calculated, the cell concentration was adjusted to 2.0*10^6/ml with physiological saline, and then the suspension was injected into the left armpit of mice with 0.2 ml/mouse. On the next day, mice were randomly divided into a normal control group, a cyclophosphamide (100 mg/kg) group, and a YK93-8 (2 g/kg) group. Cyclophosphamide was injected intraperitoneally for single time, mice in the YK93-8 (2 g/kg) group were orally administered by gavage daily for 13 consecutive days, while mice in the normal control group were administered orally with an equal volume of sodium carboxymethyl cellulose. On the day of treatment, weight was measured, 20 μl of blood was obtained from the orbital blood and the routine blood analysis was performed. The tumor blocks were stripped, weighed and photographed, and the tumor suppression rate was calculated.
as §1, with “and” for “and the”

B16F10 melanoma = system: B16F10 melanoma
Experimental: as §2, with “female” for “Male”, “mice;” for “mice”, “cyclophosphamide group” for “cyclophosphamide”
Subcutaneous inoculation of B16F10 cell suspension to replicate a mouse melanoma model: Under sterile conditions, the tumor block was removed, ground into tumor fluid, the concentration was adjusted with physiological saline to 2.58×10^6/ml, and 0.2 ml was taken to evenly inoculate subcutaneously on the armpit back of mice. On the next day, the animals were randomly grouped and administration began (recorded as Day 0). CTX (100 mg/kg) was administered once a week, YK-93-8 (2 g/kg) was administered daily, and mice in the normal control group were orally administered an equal volume of sodium carboxymethyl cellulose. On the day of treatment, weight was measured, 20 μL of blood was obtained by taking blood from the eye socket and the blood routine analysis was performed, the tumor block was peeled off, weighed and photographed, and the tumor suppression rate was calculated.
as §1, with “and” for “and the”

[2] = system: mouse prostatic hyperplasia model; test: Pharmacodynamic test on mouse prostatic hyperplasia model (propionate testosterone, androgen loading); settings: for Average weight / wet weight of the prostate: 30 days of administration; for prostate index: 30 days, wet weight of the prostate (mg)/body weight (g)
Experimental: Preparation of experimental animals: The experimental animals were adapted to the experimental environment (temperature 22° C.±2° C., relative humidity 50%±2%) for 1 day.
Subcutaneous injection of propionate testosterone to replicate mice prostatic hyperplasia model: Mice were randomly grouped 10 in each group before the model being established. Propionate testosterone (0.01 mg/kg) in soybean oil was injected subcutaneously, once a day for 30 consecutive days. Mice in the normal control group were injected subcutaneously with an equal volume of sodium carboxymethyl cellulose. […] Mice were weighed on the next day. After 30 days of administration, mice were weighed, executed. The prostate was excised through a median incision in the lower abdomen, the wet weight was weighed, and the prostate index was calculated by the wet weight of the prostate (mg)/body weight of the mouse (g).
The average value, standard deviation and standard error of the prostate index in each group were calculated. The data from the groups were compared with each other by T.TEST, and P<0.05 was considered as a significant difference.

[3] = system: lactation of pregnant mice; test: Pharmacodynamic test on lactation of pregnant mice; type: in vivo, female Kunming pregnant mice; settings: 2 g/kg by gavage, 13 days
Experimental: • Animals: female Kunming pregnant mice, weight: 30-50 grams • Drug: YK93-8 • Instruments: electronic balance • Experiment grouping: • Normal control group; • Protein YK93-8, (2 g/kg) group. • Method:
The parturition date of each pregnant mouse was recorded and the mice were randomly divided into normal control group and YK 93-8 group based on the parturition date.
YK93-8 (2 g/kg) was administered by gavage, and the weight and weight gain of the young mice were recorded daily. After 13 days of administration, the female mouse was euthanized using cervical dislocation method, and […] of blood samples were collected from the eye socket, left standing at room temperature for 1-2 hours, centrifuged 1000 g for 20 minutes. The content of prolactin in serum was measured.
The average daily weight gain of young mice (lactation yield of female mice) and serum prolactin content of female mice in each group were calculated.

[4] = 0.1 g/kg intraperitoneally, single time
[5] = 100 mg/kg intraperitoneally, single time, P<0.05
[6] = 0.5 g/kg intragastric every day for 10 days
[7] = 2 g/kg by gavage daily for 13 days

COc1cccc(C2(O)CCCCC2CN(C)C)c1 (stereo not drawn) [Tramadol Hydrochloride]
Number of writhing ([1]; 50 mg/kg): 0.0 ± 0.00

O=P1(N(CCCl)CCCl)NCCCO1 (stereo not drawn) [cyclophosphamide, Cyclophosphamide]
Change of weight (g) Before administration (Lewis lung cancer; 0.1 g/kg group): 17.60 ± 0.59 g
Change of weight (g) After administration (Lewis lung cancer; [4]): 19.95 ± 0.77 g
Tumor suppression (%) (Lewis lung cancer; [4]): 95.35%
Tumor weight (Lewis lung cancer; [4]): 0.14 ± 0.09 g
Tumor suppression (%) (EL-4 lymphoma; [4]): 95.67%
Tumor weight (EL-4 lymphoma; [4]): 0.12 ± 0.03 g
leukocytes (blood routine test) (EL-4 lymphoma; [5]): significantly reduced
lymphocytes (blood routine test) (EL-4 lymphoma; [5]): significantly reduced
monocytes (blood routine test) (EL-4 lymphoma; [5]): significantly reduced
neutrophils (blood routine test) (EL-4 lymphoma; [5]): significantly reduced
Change of weight (g) Before administration (B16F10 melanoma; 0.1 g/kg group): 18.97 ± 0.55 g
Change of weight (g) After administration (B16F10 melanoma; 0.1 g/kg once a week): 19.07 ± 1.46 g
Tumor suppression (%) (B16F10 melanoma; 0.1 g/kg once a week): 85.82%
Tumor weight (B16F10 melanoma; 0.1 g/kg once a week): 0.26 ± 0.11 g

CC(C)(C)NC(=O)[C@H]1CC[C@H]2[C@@H]3CC[C@H]4NC(=O)C=C[C@]4(C)[C@H]3CC[C@]12C [finasteride]
Average weight ([2]; 1 mg/kg orally): 43.5 ± 3.5 g
wet weight of the prostate ([2]; 1 mg/kg orally): 31.8 ± 4.8 mg
prostate index ([2]; 1 mg/kg orally): 0.75 ± 0.12
Average weight ([2]; 3 mg/kg orally): 40.7 ± 3.1 g
wet weight of the prostate ([2]; 3 mg/kg orally): 29.2 ± 1.4 mg
prostate index ([2]; 3 mg/kg orally): 0.72 ± 0.08

B1: YK93-8: keratin with the amino acid sequence shown in SEQ ID NO.1, expressed in Escherichia coli, band around 63 KD; protein of Example 3 (protein, listed as Manis pentadactyla)
chain: MSCRSYRVSSGRQIGNFSSCSAVMPQSLSRFRASSVSCRSGPGFRGLGGFGSRSVIAFGSCPPRMAAVGPRPIRCGVGFSAGSGLAFGLGDSCGAGLGFGTGSGLGYGFGGPGFGYRIGGVGVPAAPSITAVTVNQSLLTPLNLEIDPNAQRVKRDEKEQIKTLNNKFASFIDKVRFLEQQNKLLETKWNFLQDQKGVQSNLEPLFENYVANLRRQLDIVSSDQARLETERNNMQDVLEGFKKKYEEEVVFRANAENEFVALKKDVDAAFLNKSDLEANVDALIQEIDFLKNLYMAEIQLLQSHISDTSVIVKMDNSRDLNFDGIIAEVKAQYEEVARRSRADAEAWYQTKYEEMRMTAGQHSDNLRNTRDEINELTRVIQRLKAEIEHTKAQRAKLEAAIAEAEQQGEAALNDAKCKLADLEAALQQAKQDMARQLREYQELMNIKLALDIEIATYRRLLEGEEIRICEGVGPVNISVSSSRGGVVCGPEPLLTSSTLSRGGVTFSGGSSIRSSGACGLSLGGSRVVAAGGDVLSAGSRGGSVLVGDACAPSIPCPLPTDGGFSSCSGGRSSLGSSVRFVSTTTSRRTKY
Change of weight (g) Before administration (Lewis lung cancer; 0.5 g/kg group): 17.91 ± 0.26 g
Change of weight (g) After administration (Lewis lung cancer; [6]): 21.93 ± 0.93 g
Tumor suppression (%) (Lewis lung cancer; [6]): 27.83%
Tumor weight (Lewis lung cancer; [6]): 2.16 ± 0.47 g
weight gain of young mice (lactation yield of female mice) [3]: no significant effect
serum prolactin content in female mouse ([3]; vs normal control group): to some extent increase
Tumor suppression (%) (EL-4 lymphoma; [7]): 13.18%
Tumor weight (EL-4 lymphoma; [7]): 2.44 ± 0.23 g
Number of writhing ([1]; 0.5 g/kg by gavage once a day for 7 days): 13.76 ± 11.84
Change of weight (g) After administration (B16F10 melanoma; 2 g/kg daily): 19.78 ± 0.76 g
Tumor suppression (%) (B16F10 melanoma; 2 g/kg daily): 50.18%
Tumor weight (B16F10 melanoma; 2 g/kg daily): 0.90 ± 0.41 g
Change of weight (g) Before administration (B16F10 melanoma; 2 g/kg group): 19.20 ± 0.54 g
wet weight of the prostate ([2]; 0.5 g/kg orally): 44.3 ± 9.3 mg
prostate index ([2]; 0.5 g/kg orally): 1.12 ± 0.20
